Source: ChEMBL document CHEMBL1139057, “Rotenoids and flavonoids with anti-invasion of HT1080, anti-proliferation of U937, and differentiation-inducing activity in HL-60 from Erycibe expansa” (Bioorg Med Chem, 2007)
Activity calls are given as the source filed them. The rule behind the calls is not given here.

What was measured:
U-937 [1] = assay: Antiproliferative activity against human U937 cells after 48 hrs by WST-8 assay; format: functional, cell-based; details: U-937, 48 h
U-937 [2] = assay: Antiproliferative activity against human U937 cells after 24 hrs by WST-8 assay; format: functional, cell-based; details: U-937, 24 h
U-937 [3] = assay: Antiproliferative activity against human U937 cells after 72 hrs by WST-8 assay; format: functional, cell-based; details: U-937, 72 h
HT-1080 [4] = assay: Antiproliferative activity against human HT1080 cells at 3 uM after 48 hrs by MTT assay; format: functional; details: HT-1080, 48 h
HT-1080 [5] = assay: Antiproliferative activity against human HT1080 cells at 10 uM after 72 hrs by MTT assay; format: functional; details: HT-1080, 72 h
HT-1080 [6] = assay: Inhibition of invasion of human HT1080 cells at 10 uM after 24 hrs; format: functional; details: HT-1080, 24 h
HT-1080 [7] = assay: Antiproliferative activity against human HT1080 cells at 30 uM after 48 hrs by calcein-AM assay; format: functional; details: HT-1080, 48 h
HT-1080 [8] = assay: Inhibition of proMMP9 production in human HT1080 cells by gelatin zymography analysis; format: functional, cell-based
HT-1080 [9] = assay: Antiproliferative activity against human HT1080 cells at 10 uM after 24 hrs by calcein-AM assay; format: functional; details: HT-1080, 24 h
HT-1080 [10] = assay: Antiproliferative activity against human HT1080 cells at 30 uM after 72 hrs by MTT assay; format: functional; details: HT-1080, 72 h
HT-1080 [11] = assay: Antiproliferative activity against human HT1080 cells at 3 uM after 72 hrs by calcein-AM assay; format: functional; details: HT-1080, 72 h
HT-1080 [12] = assay: Antiproliferative activity against human HT1080 cells at 1 uM after 48 hrs by calcein-AM assay; format: functional; details: HT-1080, 48 h
HT-1080 [13] = assay: Inhibition of proMMP2 production in human HT1080 cells by gelatin zymography analysis; format: functional, cell-based
HT-1080 [14] = assay: Inhibition of invasion of human HT1080 cells at 1 uM after 24 hrs; format: functional; details: HT-1080, 24 h
HT-1080 [15] = assay: Antiproliferative activity against human HT1080 cells at 3 uM after 72 hrs by MTT assay; format: functional; details: HT-1080, 72 h
HT-1080 [16] = assay: Antiproliferative activity against human HT1080 cells at 1 uM after 72 hrs by calcein-AM assay; format: functional; details: HT-1080, 72 h
HT-1080 [17] = assay: Antiproliferative activity against human HT1080 cells at 30 uM after 48 hrs by MTT assay; format: functional; details: HT-1080, 48 h
HT-1080 [18] = assay: Antiproliferative activity against human HT1080 cells at 3 uM after 24 hrs by calcein-AM assay; format: functional; details: HT-1080, 24 h
HT-1080 [19] = assay: Antiproliferative activity against human HT1080 cells at 30 uM after 24 hrs by MTT assay; format: functional; details: HT-1080, 24 h
HT-1080 [20] = assay: Antiproliferative activity against human HT1080 cells at 1 uM after 24 hrs by calcein-AM assay; format: functional; details: HT-1080, 24 h
HT-1080 [21] = assay: Inhibition of invasion of human HT1080 cells at 30 uM after 24 hrs; format: functional; details: HT-1080, 24 h
HT-1080 [22] = assay: Antiproliferative activity against human HT1080 cells at 1 uM after 72 hrs by MTT assay; format: functional; details: HT-1080, 72 h
HT-1080 [23] = assay: Antiproliferative activity against human HT1080 cells at 10 uM after 48 hrs by calcein-AM assay; format: functional; details: HT-1080, 48 h
HT-1080 [24] = assay: Antiproliferative activity against human HT1080 cells at 10 uM after 72 hrs by calcein-AM assay; format: functional; details: HT-1080, 72 h
HT-1080 [25] = assay: Antiproliferative activity against human HT1080 cells at 3 uM after 24 hrs by MTT assay; format: functional; details: HT-1080, 24 h
HT-1080 [26] = assay: Antiproliferative activity against human HT1080 cells at 10 uM after 48 hrs by MTT assay; format: functional; details: HT-1080, 48 h
HT-1080 [27] = assay: Antiproliferative activity against human HT1080 cells at 1 uM after 48 hrs by MTT assay; format: functional; details: HT-1080, 48 h
HT-1080 [28] = assay: Antiproliferative activity against human HT1080 cells at 3 uM after 48 hrs by calcein-AM assay; format: functional; details: HT-1080, 48 h
HT-1080 [29] = assay: Inhibition of invasion of human HT1080 cells at 3 uM after 24 hrs; format: functional; details: HT-1080, 24 h
HT-1080 [30] = assay: Antiproliferative activity against human HT1080 cells at 1 uM after 24 hrs by MTT assay; format: functional; details: HT-1080, 24 h
HT-1080 [31] = assay: Antiproliferative activity against human HT1080 cells at 30 uM after 24 hrs by calcein-AM assay; format: functional; details: HT-1080, 24 h
HT-1080 [32] = assay: Antiproliferative activity against human HT1080 cells at 10 uM after 24 hrs by MTT assay; format: functional; details: HT-1080, 24 h
HT-1080 [33] = assay: Antiproliferative activity against human HT1080 cells at 30 uM after 72 hrs by calcein-AM assay; format: functional; details: HT-1080, 72 h

COc1ccc(-c2coc3cc(O)ccc3c2=O)cc1O [CALYCOSIN]
IC50 (U-937 [1]): 48 µM
IC50 (U-937 [2]): 49 µM
IC50 (U-937 [3]): 43 µM

COc1ccc([C@@H]2CCc3c(OC)cc(OC)cc3O2)cc1
IC50 (U-937 [1]): 21 µM
IC50 (U-937 [2]): 29 µM
IC50 (U-937 [3]): 18 µM

CC(C)=CCc1c(O)cc2occ(-c3ccc(O)cc3)c(=O)c2c1O [WIGHTEONE]
IC50 (U-937 [1]): 35 µM
IC50 (U-937 [2]): 28 µM
IC50 (U-937 [3]): 32 µM

CC1(C)C=Cc2c(cc3occ(-c4ccc(O)cc4)c(=O)c3c2O)O1 [ALPINUMISOFLAVONE]
IC50 (U-937 [1]): 32 µM
IC50 (U-937 [2]): 35 µM
IC50 (U-937 [3]): 28 µM

O=c1cc(-c2ccc(O)c(O)c2)oc2cc(O)cc(O)c12 [LUTEOLIN]
IC50 (U-937 [1]): 28 µM
IC50 (U-937 [2]): 36 µM
IC50 (U-937 [3]): 20 µM

CC(C)(O)[C@@H](O)Cc1c(O)cc(O)c2c(=O)c(-c3ccc(O)cc3)coc12 [ERYCIBENIN B]
IC50 (U-937 [1]): > 100 µM
IC50 (U-937 [2]): > 100 µM
IC50 (U-937 [3]): > 100 µM

COc1ccc([C@@H]2CCc3c(OC)cc(OC)cc3O2)c(OC)c1 [ERYCIBENIN F]
IC50 (U-937 [1]): > 100 µM
IC50 (U-937 [2]): > 100 µM
IC50 (U-937 [3]): > 100 µM

COc1ccc2c(c1)O[C@@H]1[C@H]2COC2=CC(=O)CC[C@@]21O
IC50 (U-937 [1]): > 100 µM
IC50 (U-937 [2]): > 100 µM
IC50 (U-937 [3]): > 100 µM

COc1ccc([C@@H]2CCc3c(OC)cc(OC)cc3O2)c(O)c1 [ERYCEBENIN E]
IC50 (U-937 [1]): 4.3 µM
IC50 (U-937 [2]): 37 µM
IC50 (U-937 [3]): 2.9 µM

COc1ccc(-c2coc3cc(O)ccc3c2=O)cc1 [FORMONONETIN]
IC50 (U-937 [1]): 44 µM
IC50 (U-937 [2]): 50 µM
IC50 (U-937 [3]): 45 µM

COc1cc(O)cc2c1C(=O)O[C@@H](C)CCCCCCC2 [LASIODIPLODIN]
IC50 (U-937 [1]): 28 µM
IC50 (U-937 [2]): 36 µM
IC50 (U-937 [3]): 20 µM

O=C1C=C2OC[C@H]3c4cc5c(cc4O[C@H]3[C@@]2(O)CC1)OCO5
IC50 (U-937 [1]): > 100 µM
IC50 (U-937 [2]): > 100 µM
IC50 (U-937 [3]): > 100 µM

CC[C@@]1(O)C(=O)OCc2c1cc1n(c2=O)Cc2cc3ccccc3nc2-1 [CAMPTOTHECIN]
IC50 (U-937 [1]): 0.032 µM
IC50 (U-937 [2]): 0.68 µM
IC50 (U-937 [3]): 0.015 µM

COc1cc(-c2coc3cc(O)cc(O)c3c2=O)ccc1O [3'-O-METHYLOROBOL]
IC50 (U-937 [1]): 85 µM
IC50 (U-937 [2]): 68 µM
IC50 (U-937 [3]): 74 µM

C=C(C)[C@H]1Cc2c(ccc3c2O[C@@H]2COc4cc(OC)c(OC)cc4[C@@H]2C3=O)O1 [ROTENONE]
inhibition at 3 µM (HT-1080 [4]): 97.5%
inhibition at 10 µM (HT-1080 [5]): 98.4%
inhibition at 10 µM (HT-1080 [6]): 53.7%
inhibition at 30 µM (HT-1080 [7]): 40.4%
Activity (HT-1080 [8]): Active
inhibition at 10 µM (HT-1080 [9]): 23%
inhibition at 30 µM (HT-1080 [10]): 97.8%
inhibition at 3 µM (HT-1080 [11]): 95.3%
inhibition at 1 µM (HT-1080 [12]): 35.2%
Activity (HT-1080 [13]): Active
inhibition at 1 µM (HT-1080 [14]): 0.6%
IC50 (U-937 [1]): 0.2 µM
inhibition at 3 µM (HT-1080 [15]): 98.5%
inhibition at 1 µM (HT-1080 [16]): 97.4%
inhibition at 30 µM (HT-1080 [17]): 96.9%
inhibition at 3 µM (HT-1080 [18]): 17.1%
inhibition at 30 µM (HT-1080 [19]): 0.7%
inhibition at 1 µM (HT-1080 [20]): 16.2%
inhibition at 30 µM (HT-1080 [21]): 51.6%
inhibition at 1 µM (HT-1080 [22]): 98.6%
IC50 (U-937 [2]): 13 µM
inhibition at 10 µM (HT-1080 [23]): 51%
inhibition at 10 µM (HT-1080 [24]): 91.4%
inhibition at 3 µM (HT-1080 [25]): 9.9%
inhibition at 10 µM (HT-1080 [26]): 97.3%
IC50 (U-937 [3]): 0.07 µM
inhibition at 1 µM (HT-1080 [27]): 95.9%
inhibition at 3 µM (HT-1080 [28]): 44.2%
inhibition at 3 µM (HT-1080 [29]): 19.6%
inhibition at 1 µM (HT-1080 [30]): 9.4%
inhibition at 30 µM (HT-1080 [31]): 26.8%
inhibition at 10 µM (HT-1080 [32]): 9.5%
inhibition at 30 µM (HT-1080 [33]): 93.4%
